Data as given in PubChem BioAssay AID256 (DTP/NCI, 2004).
“And” between values parts separate entries of the source, which are not always exact repeats. Equal values may be shown once. Toxic doses and inconclusive results are not listed.

Tested on: CD2F1 mice, L1210 leukemia ip, survival T/C
Test: NCI In Vivo Anticancer Drug Screen. Data for tumor model L1210 Leukemia (intraperitoneal) in CD2F1 (CDF1) mice
Conditions: higher = longer survival
Method in brief: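 Activity against a transplanted murine tumor was judged by comparing the compound group with a vehicle group. The outcome in the treated animals was divided by that in the controls.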

[1] = endpoint: mean survival time, dose: 100.0 mg/kg/injection, schedule: Q01DX001 (ip), vehicle: saline with Tween-80
[2] = endpoint: mean survival time, dose: 100.0 mg/kg/injection, schedule: Q01DX009 (ip), vehicle: saline with Tween-80
[3] = endpoint: mean survival time, dose: 200.0 mg/kg/injection, schedule: Q01DX001 (ip), vehicle: saline with Tween-80
[4] = endpoint: mean survival time, dose: 200.0 mg/kg/injection, schedule: Q01DX009 (ip), vehicle: saline with Tween-80
[5] = endpoint: mean survival time, dose: 400.0 mg/kg/injection, schedule: Q01DX001 (ip), vehicle: saline with Tween-80
[6] = endpoint: mean survival time, dose: 400.0 mg/kg/injection, schedule: Q01DX009 (ip), vehicle: saline with Tween-80
[7] = endpoint: mean survival time, dose: 100.0 mg/kg/injection, schedule: Q04DX003 (ip), vehicle: saline with Tween-80
[8] = endpoint: mean survival time, dose: 200.0 mg/kg/injection, schedule: Q04DX003 (ip), vehicle: saline with Tween-80
[9] = endpoint: mean survival time, dose: 400.0 mg/kg/injection, schedule: Q04DX003 (ip), vehicle: saline with Tween-80

Cc1c(C)c(OC(=O)c2ccccc2)c(Br)c(C)c1OC(=O)c1ccccc1
T/C [1]: 91 % of control
T/C [2]: 100 % of control
T/C [3]: 100 % of control
T/C [4]: 100 % of control
T/C [5]: 100 % of control
T/C [6]: 100 % of control

Nc1ncnc2nc(C3COCCO3)[nH]c12 (configuration not stated)
T/C (endpoint: mean survival time, dose: 12.5 mg/kg/injection, schedule: Q01DX005 (ip), vehicle: distilled water + Tween-80): 90 % of control
T/C (endpoint: mean survival time, dose: 25.0 mg/kg/injection, schedule: Q01DX005 (ip), vehicle: distilled water + Tween-80): 94 % of control
T/C (endpoint: mean survival time, dose: 50.0 mg/kg/injection, schedule: Q01DX005 (ip), vehicle: distilled water + Tween-80): 94 % of control
T/C (endpoint: mean survival time, dose: 100.0 mg/kg/injection, schedule: Q01DX005 (ip), vehicle: distilled water + Tween-80): 96 % of control
T/C (endpoint: mean survival time, dose: 200.0 mg/kg/injection, schedule: Q01DX005 (ip), vehicle: distilled water + Tween-80): 104 % of control

CCCCCCCC/C=C\CCCCCCCC(=O)NCCN1CCCCC1
T/C (endpoint: mean survival time, dose: 75.0 mg/kg/injection, schedule: Q01DX001 (ip), vehicle: saline): 100 % of control
T/C (endpoint: mean survival time, dose: 150.0 mg/kg/injection, schedule: Q01DX001 (ip), vehicle: saline): 96 % of control
T/C (endpoint: mean survival time, dose: 300.0 mg/kg/injection, schedule: Q01DX001 (ip), vehicle: saline): 96 % of control

O=C(On1nnc2ccccc2c1=O)c1ccccc1
T/C (endpoint: mean survival time, dose: 12.5 mg/kg/injection, schedule: Q01DX001 (ip), vehicle: distilled water + Tween-80): 102 % of control
T/C (endpoint: mean survival time, dose: 25.0 mg/kg/injection, schedule: Q01DX001 (ip), vehicle: distilled water + Tween-80): 101 % of control
T/C (endpoint: mean survival time, dose: 50.0 mg/kg/injection, schedule: Q01DX001 (ip), vehicle: distilled water + Tween-80): 98 % of control
T/C (endpoint: mean survival time, dose: 100.0 mg/kg/injection, schedule: Q01DX001 (ip), vehicle: distilled water + Tween-80): 100 % of control
T/C (endpoint: mean survival time, dose: 200.0 mg/kg/injection, schedule: Q01DX001 (ip), vehicle: distilled water + Tween-80): 97 % of control

O=C(O)c1cc(Cc2ccc(O)c(C(=O)O)c2)ccc1O (tested in a mixture with another compound)
T/C (endpoint: median survival time, dose: 6.25 mg/kg/injection, schedule: Q01DX009 (ip), vehicle: Klucel (hydroxypropylcellulose) (HPC)): 101 % of control
T/C (endpoint: median survival time, dose: 12.5 mg/kg/injection, schedule: Q01DX009 (ip), vehicle: Klucel (hydroxypropylcellulose) (HPC)): 104 % of control
T/C (endpoint: median survival time, dose: 25.0 mg/kg/injection, schedule: Q01DX009 (ip), vehicle: Klucel (hydroxypropylcellulose) (HPC)): 104 % of control
T/C (endpoint: median survival time, dose: 50.0 mg/kg/injection, schedule: Q01DX009 (ip), vehicle: Klucel (hydroxypropylcellulose) (HPC)): 97 % of control
T/C (endpoint: median survival time, dose: 100.0 mg/kg/injection, schedule: Q01DX009 (ip), vehicle: Klucel (hydroxypropylcellulose) (HPC)): 96 % of control
T/C (endpoint: median survival time, dose: 200.0 mg/kg/injection, schedule: Q01DX009 (ip), vehicle: Klucel (hydroxypropylcellulose) (HPC)): 89 % of control

N#CCCC1C(=O)CCCC1=O
T/C [7]: 105 % of control
T/C [8]: 89 % of control
T/C [9]: 97 % of control

BrC1=C(c2ccccc2)C2CCCCC2C1(Br)c1ccccc1 (configuration not stated)
T/C (endpoint: mean survival time, dose: 100.0 mg/kg/injection, schedule: Q01DX001 (ip), vehicle: Klucel (hydroxypropylcellulose) (HPC)): 98 % of control
T/C (endpoint: mean survival time, dose: 200.0 mg/kg/injection, schedule: Q01DX001 (ip), vehicle: Klucel (hydroxypropylcellulose) (HPC)): 102 % of control
T/C (endpoint: mean survival time, dose: 400.0 mg/kg/injection, schedule: Q01DX001 (ip), vehicle: Klucel (hydroxypropylcellulose) (HPC)): 102 % of control

O=C(NCCCCC(Cl)C(=O)O)c1ccccc1 (configuration not stated)
T/C [2]: 98 % of control
T/C [4]: 100 % of control
T/C [6]: 100 % of control

COc1c(C)c2c(c(OC(C)=O)c1CC(=O)O)C(=O)OC2
T/C (endpoint: mean survival time, dose: 100.0 mg/kg/injection, schedule: Q04DX002 (ip), vehicle: saline with Tween-80): 108 % of control
T/C (endpoint: mean survival time, dose: 200.0 mg/kg/injection, schedule: Q04DX002 (ip), vehicle: saline with Tween-80): 100 % of control
T/C (endpoint: mean survival time, dose: 400.0 mg/kg/injection, schedule: Q04DX002 (ip), vehicle: saline with Tween-80): 100 % of control

CC[C@@]1(OC(=O)CCC(=O)O)C(=O)OCc2c1cc1n(c2=O)Cc2cc3ccccc3nc2-1
T/C (endpoint: median survival time, dose: 5.86 mg/kg/injection, schedule: Q04DX002 (ip), vehicle: water): 118 % of control
T/C (endpoint: median survival time, dose: 8.79 mg/kg/injection, schedule: Q04HX004 (iv), vehicle: water): 154 % of control
T/C (endpoint: median survival time, dose: 11.73 mg/kg/injection, schedule: Q04DX002 (ip), vehicle: water): 120 % of control
T/C (endpoint: median survival time, dose: 17.59 mg/kg/injection, schedule: Q04HX004 (iv), vehicle: water): 167 % of control and 180 % of control
T/C (endpoint: median survival time, dose: 35.18 mg/kg/injection, schedule: Q04HX004 (iv), vehicle: water): 197 % of control and 228 % of control
T/C (endpoint: median survival time, dose: 46.9 mg/kg/injection, schedule: Q04DX002 (ip), vehicle: water): 192 % of control and 200 % of control
T/C (endpoint: median survival time, dose: 93.8 mg/kg/injection, schedule: Q04DX002 (ip), vehicle: water): 231 % of control

O=C(O)COc1cccc(OCC(=O)O)c1
T/C [7]: 100 % of control
T/C (endpoint: mean survival time, dose: 100.0 mg/kg/injection, schedule: Q04DX003 (ip), vehicle: saline): 96 % of control
T/C [8]: 91 % of control
T/C (endpoint: mean survival time, dose: 200.0 mg/kg/injection, schedule: Q04DX003 (ip), vehicle: saline): 94 % of control
T/C (endpoint: mean survival time, dose: 400.0 mg/kg/injection, schedule: Q04DX003 (ip), vehicle: saline): 100 % of control

COc1cc2c(cc1OC)-c1c(cnn1C1OC(COC(C)=O)C(OC(C)=O)C(OC(C)=O)C1OC(C)=O)CC2 (configuration not stated)
T/C (endpoint: mean survival time, dose: 12.5 mg/kg/injection, schedule: Q01DX005 (ip), vehicle: other): 103 % of control
T/C (endpoint: mean survival time, dose: 25.0 mg/kg/injection, schedule: Q01DX005 (ip), vehicle: other): 93 % of control
T/C (endpoint: mean survival time, dose: 50.0 mg/kg/injection, schedule: Q01DX005 (ip), vehicle: other): 90 % of control
T/C (endpoint: mean survival time, dose: 100.0 mg/kg/injection, schedule: Q01DX005 (ip), vehicle: other): 87 % of control

CCOC(=O)C(=O)Nc1ccc(Cl)cc1
T/C [1]: 94 % of control
T/C [3]: 97 % of control
T/C [5]: 95 % of control

CC1(C)CC(Cl)(C(O)c2ccc([N+](=O)[O-])cc2)C(=O)c2ccccc21 (configuration not stated)
T/C (endpoint: mean survival time, dose: 100.0 mg/kg/injection, schedule: Q04DX003 (ip), vehicle: acetone): 95 % of control
T/C (endpoint: mean survival time, dose: 200.0 mg/kg/injection, schedule: Q04DX003 (ip), vehicle: acetone): 98 % of control
T/C (endpoint: mean survival time, dose: 400.0 mg/kg/injection, schedule: Q04DX003 (ip), vehicle: acetone): 88 % of control

Cc1cc(Br)cnc1Cl
T/C [1]: 97 % of control
T/C [7]: 92 % of control
T/C [3]: 106 % of control
T/C [8]: 97 % of control
T/C [5]: 101 % of control
T/C [9]: 96 % of control

O/N=C1/CCCC/C1=C/c1ccccc1Cl
T/C [2]: 95 % of control
T/C [4]: 97 % of control
T/C [6]: 100 % of control

NC(Cn1ccc(=O)c(O)c1)C(=O)O (configuration not stated)
T/C (endpoint: median survival time, dose: 50.0 mg/kg/injection, schedule: Q01DX009 (ip), vehicle: saline): 106 % of control
T/C (endpoint: median survival time, dose: 100.0 mg/kg/injection, schedule: Q01DX009 (ip), vehicle: saline): 107 % of control
T/C (endpoint: median survival time, dose: 200.0 mg/kg/injection, schedule: Q01DX009 (ip), vehicle: saline): 107 % of control
T/C (endpoint: median survival time, dose: 400.0 mg/kg/injection, schedule: Q01DX009 (ip), vehicle: saline): 114 % of control

C1CCC2C3CCC(O3)C2C1 (configuration not stated)
T/C (endpoint: mean survival time, dose: 100.0 mg/kg/injection, schedule: Q04DX003 (ip), vehicle: saline sonified): 96 % of control
T/C (endpoint: mean survival time, dose: 200.0 mg/kg/injection, schedule: Q04DX003 (ip), vehicle: saline sonified): 96 % of control
T/C (endpoint: mean survival time, dose: 400.0 mg/kg/injection, schedule: Q04DX003 (ip), vehicle: saline sonified): 92 % of control

CCOC(=O)COC(CN)C(Cl)(Cl)Cl (configuration not stated)
T/C [7]: 101 % of control
T/C [8]: 97 % of control
